Activity calls are given as the source filed them.
Columns and labels:
[1] = molecular target: T1, Kappa-type opioid receptor (Homo sapiens, UniProt P41145); test: KOR antagonists by imaging, SAR follow-up, image-based (AID 2348); type: functional
[2] = molecular target: T2, Mu-type opioid receptor (Homo sapiens, UniProt P35372); test: MOR antagonists, SAR follow-up, image-based (AID 2420); type: functional;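 note: compounds added before stimulation of receptor with agonist DAMGO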
[3] = molecular target: T3, Delta-type opioid receptor (Homo sapiens, UniProt P41143); test: DOR agonists, SAR follow-up, image-based (AID 2370); type: functional
T3 sequence (P41143 whole entry): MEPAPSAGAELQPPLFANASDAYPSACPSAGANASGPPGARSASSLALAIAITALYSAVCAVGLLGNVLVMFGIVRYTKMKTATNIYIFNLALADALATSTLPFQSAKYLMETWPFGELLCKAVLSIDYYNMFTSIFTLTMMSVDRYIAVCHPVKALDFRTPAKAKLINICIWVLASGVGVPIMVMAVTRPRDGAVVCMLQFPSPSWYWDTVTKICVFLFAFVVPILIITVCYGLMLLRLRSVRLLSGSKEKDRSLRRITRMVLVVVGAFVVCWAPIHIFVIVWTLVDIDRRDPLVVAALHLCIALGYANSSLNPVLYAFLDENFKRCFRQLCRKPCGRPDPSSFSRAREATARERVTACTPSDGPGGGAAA

[4] = molecular target: T3, Delta-type opioid receptor; test: DOR antagonists, SAR follow-up, image-based (AID 2357); type: functional
[5] = molecular target: T1, Kappa-type opioid receptor; test: SAR analysis of small molecule agonists of the kappa opioid receptor via a luminescent beta-arrestin assay. [Related pubchem assays (depositor defined):AID1777, AID1786, AID1966, AID2133, AID2136, AID2348, AID2352, AID2357, AID2359, AID2370, AID2420, AID2478, AID2491, AID2492, AID2493, AID2497, AID2498, AID2500, AID449737, AID488822, AID488842]; type: functional
[6] = molecular target: T2, Mu-type opioid receptor; test: MOR agonists by imaging, SAR follow-up, image-based (AID 2352); type: functional
[7] = molecular target: T1, Kappa-type opioid receptor; test: KOR agonist analogs, imaging readout, SAR follow-up, image-based (AID 2359); type: functional
[8] = molecular target: T4, Dual specificity protein phosphatase 3 (Homo sapiens, UniProt P51452); test: VHR1 phosphatase inhibitors, primary screen, biochemical, absorbance, uHTS (AID 1654)
T4 sequence (P51452 whole entry): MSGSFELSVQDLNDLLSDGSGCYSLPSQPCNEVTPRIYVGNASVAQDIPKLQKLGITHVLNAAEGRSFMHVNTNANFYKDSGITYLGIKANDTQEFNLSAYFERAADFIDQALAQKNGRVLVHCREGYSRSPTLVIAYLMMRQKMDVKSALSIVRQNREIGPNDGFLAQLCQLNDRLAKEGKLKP

[9] = inhibitors of Bluetongue virus cytopathic effect, confirmation, arbovirus, BSR cells (AID 1250); type: functional;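 note: protection from viral cytopathic effect measured as cell viability by ATP luminescence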
[10] = molecular target: Dual specificity protein phosphatase 6 (Rattus norvegicus, UniProt Q64346); test: MKP-3 phosphatase inhibitors, primary screen, biochemical, rat enzyme, in vitro (AID 425)
Chain of Dual specificity protein phosphatase 6 (Q64346 whole entry): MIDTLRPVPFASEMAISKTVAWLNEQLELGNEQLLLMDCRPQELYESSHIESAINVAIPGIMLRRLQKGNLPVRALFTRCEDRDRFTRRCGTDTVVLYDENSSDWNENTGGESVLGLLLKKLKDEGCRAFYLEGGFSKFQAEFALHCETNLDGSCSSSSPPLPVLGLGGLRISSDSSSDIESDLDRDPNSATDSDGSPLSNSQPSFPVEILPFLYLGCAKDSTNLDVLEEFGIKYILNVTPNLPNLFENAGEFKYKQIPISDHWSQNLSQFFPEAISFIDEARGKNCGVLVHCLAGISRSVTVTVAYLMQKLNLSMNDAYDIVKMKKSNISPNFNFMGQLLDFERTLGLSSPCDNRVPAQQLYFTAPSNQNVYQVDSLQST

[11] = molecular target: T4, Dual specificity protein phosphatase 3; test: VHR1 phosphatase inhibitors, biochemical (AID 1878)
[12] = molecular target: T5, Calpain-2 catalytic subunit (Sus scrofa, UniProt P43367); test: pig calpain II inhibitor potency, dose response, biochemical, fluorogenic peptide substrate (AID 1420); type: functional
T5 sequence (P43367 whole entry): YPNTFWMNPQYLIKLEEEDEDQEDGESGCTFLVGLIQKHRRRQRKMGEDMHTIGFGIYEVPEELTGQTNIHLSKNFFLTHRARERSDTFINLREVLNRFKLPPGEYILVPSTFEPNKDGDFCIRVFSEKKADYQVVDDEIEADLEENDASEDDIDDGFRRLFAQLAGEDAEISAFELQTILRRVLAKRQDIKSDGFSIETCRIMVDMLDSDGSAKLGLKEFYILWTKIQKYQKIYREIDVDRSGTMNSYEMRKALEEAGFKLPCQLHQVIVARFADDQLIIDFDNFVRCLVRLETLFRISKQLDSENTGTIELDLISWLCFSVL

[13] = molecular target: Eukaryotic translation initiation factor 4E (Mus musculus, UniProt P63073); test: eIF4E–eIF4G protein interaction inhibitors, dose response, biochemical, TR-FRET (AID 855); type: functional;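 note: potency for disrupting eIF4E binding to eIF4GI seen as loss of FRET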
Chain of Eukaryotic translation initiation factor 4E (P63073 whole entry): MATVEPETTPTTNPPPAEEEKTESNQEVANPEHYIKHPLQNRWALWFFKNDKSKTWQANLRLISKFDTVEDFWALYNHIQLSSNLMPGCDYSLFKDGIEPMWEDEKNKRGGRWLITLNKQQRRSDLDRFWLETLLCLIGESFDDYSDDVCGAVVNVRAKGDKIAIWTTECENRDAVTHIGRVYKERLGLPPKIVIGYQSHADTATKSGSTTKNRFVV

[14] = molecular target: T6, Small ubiquitin-related modifier 1 (Homo sapiens, UniProt P63165); test: inhibitors of SUMO1 peptide binding, dose response, biochemical, fluorescence polarization, uHTS hits (AID 624382); type: functional; settings: read-out: IC50_Mean
T6 sequence (P63165 whole entry): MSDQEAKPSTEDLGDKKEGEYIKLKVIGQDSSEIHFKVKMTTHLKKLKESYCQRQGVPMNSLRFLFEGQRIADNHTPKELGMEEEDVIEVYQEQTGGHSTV

[15] = molecular target: T6, Small ubiquitin-related modifier 1; test: inhibitors of SUMO1 partner interactions, dose response, biochemical, FRET (AID 624383); type: functional; settings: read-out: IC50_Mean
[16] = inhibitors of SNCA 5'UTR-driven reporter translation, confirmation, H4 neuroglioma cells, luminescence (AID 1988); type: functional, cell-based
[17] = Luminescence Cell-Based Dose Response HTS to Identify Inhibitors of 5'UTR Stem-Loop Driven Prion Protein mRNA Translation in H4 Neuroglioblastoma Cells. [Related pubchem assays: 1827 (Project Summary), 1813 (Primary HTS)]; type: functional
[18] = tested on: HEK293; test: cells; settings: Homo sapiens;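 note: cells exposed to compound for 14 hours overnight before viability readout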
[19] = inhibitors of firefly luciferase expression or activity, dose response, H4 neuroglioma cells, luminescence (AID 1990); type: functional, cell-based
[20] = molecular target: Nucleotide-binding oligomerization domain-containing protein 1 (Homo sapiens, UniProt Q9Y239); test: NOD1 signaling inhibitors, SAR follow-up, revised (AID 2333); type: functional
Chain of Nucleotide-binding oligomerization domain-containing protein 1 (Q9Y239 whole entry, the tested form may be a part): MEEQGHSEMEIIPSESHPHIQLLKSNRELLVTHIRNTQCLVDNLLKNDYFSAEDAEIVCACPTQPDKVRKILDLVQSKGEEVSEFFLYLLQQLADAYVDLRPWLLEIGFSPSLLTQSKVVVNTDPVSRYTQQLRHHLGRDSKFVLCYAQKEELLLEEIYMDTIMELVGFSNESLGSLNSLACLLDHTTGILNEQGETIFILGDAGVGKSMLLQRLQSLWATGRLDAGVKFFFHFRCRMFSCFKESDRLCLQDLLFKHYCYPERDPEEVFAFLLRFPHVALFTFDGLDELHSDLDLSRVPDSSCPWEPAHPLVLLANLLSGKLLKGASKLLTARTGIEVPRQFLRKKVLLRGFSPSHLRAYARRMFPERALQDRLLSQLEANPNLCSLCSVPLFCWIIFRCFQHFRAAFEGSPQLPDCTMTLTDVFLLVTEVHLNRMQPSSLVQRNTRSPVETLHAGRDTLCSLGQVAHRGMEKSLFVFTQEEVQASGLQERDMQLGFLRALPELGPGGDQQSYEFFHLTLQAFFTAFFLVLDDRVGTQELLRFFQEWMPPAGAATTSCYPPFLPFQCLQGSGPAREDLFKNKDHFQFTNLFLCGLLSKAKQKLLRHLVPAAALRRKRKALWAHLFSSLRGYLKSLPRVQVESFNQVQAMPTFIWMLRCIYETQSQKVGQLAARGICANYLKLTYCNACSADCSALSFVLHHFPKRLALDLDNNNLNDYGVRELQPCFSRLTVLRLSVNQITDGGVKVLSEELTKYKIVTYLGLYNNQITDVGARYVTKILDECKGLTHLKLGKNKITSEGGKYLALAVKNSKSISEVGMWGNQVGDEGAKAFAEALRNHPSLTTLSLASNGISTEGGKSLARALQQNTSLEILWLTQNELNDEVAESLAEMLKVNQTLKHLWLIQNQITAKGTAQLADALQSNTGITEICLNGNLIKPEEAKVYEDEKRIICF

[21] = molecular target: Tumor necrosis factor (Homo sapiens, UniProt P01375); test: TNFa-triggered NF-kB activation inhibitors, SAR follow-up, cell-based, revised (AID 2337); type: functional
Chain of Tumor necrosis factor (P01375 whole entry): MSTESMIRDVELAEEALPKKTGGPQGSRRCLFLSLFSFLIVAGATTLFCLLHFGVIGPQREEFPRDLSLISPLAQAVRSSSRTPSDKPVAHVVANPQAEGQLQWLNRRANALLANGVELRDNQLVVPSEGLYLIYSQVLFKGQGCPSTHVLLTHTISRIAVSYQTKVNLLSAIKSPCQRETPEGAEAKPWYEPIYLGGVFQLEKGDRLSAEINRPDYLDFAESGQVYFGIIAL

T1 sequence (P41145 whole entry): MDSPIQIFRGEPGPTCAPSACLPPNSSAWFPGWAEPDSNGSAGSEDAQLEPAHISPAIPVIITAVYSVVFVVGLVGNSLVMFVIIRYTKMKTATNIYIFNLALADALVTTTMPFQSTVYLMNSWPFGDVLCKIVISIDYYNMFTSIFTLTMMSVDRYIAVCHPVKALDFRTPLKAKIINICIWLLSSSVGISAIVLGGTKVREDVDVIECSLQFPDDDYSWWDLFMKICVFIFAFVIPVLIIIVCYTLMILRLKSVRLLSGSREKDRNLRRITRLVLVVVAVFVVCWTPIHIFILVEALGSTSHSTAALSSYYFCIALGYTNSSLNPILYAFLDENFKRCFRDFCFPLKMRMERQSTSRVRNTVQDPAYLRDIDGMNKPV
T2 sequence (P35372 whole entry): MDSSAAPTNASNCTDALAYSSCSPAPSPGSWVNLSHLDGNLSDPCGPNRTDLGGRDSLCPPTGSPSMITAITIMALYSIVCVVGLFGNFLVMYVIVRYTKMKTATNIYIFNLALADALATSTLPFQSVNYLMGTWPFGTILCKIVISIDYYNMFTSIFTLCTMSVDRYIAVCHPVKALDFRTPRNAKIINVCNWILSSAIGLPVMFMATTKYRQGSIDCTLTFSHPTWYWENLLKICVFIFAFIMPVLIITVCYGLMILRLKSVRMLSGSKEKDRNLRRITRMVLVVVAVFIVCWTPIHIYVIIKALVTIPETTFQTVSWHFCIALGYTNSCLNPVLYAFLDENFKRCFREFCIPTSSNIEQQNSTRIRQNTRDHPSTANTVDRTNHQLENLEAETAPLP

With O=C(c1ccccn1)N(Cc1ccco1)C1(C(=O)Nc2ccc(Br)cc2)CCCCC1 the IC50 [1] was > 32 µM (inactive), the IC50 [2] was > 32 µM (inactive) and the EC50 [3] was > 32 µM (inactive). For the same compound, the IC50 [4] was > 32 µM (inactive), the EC50 [5] was 0.423 µM (active) and the EC50 [6] was > 32 µM (inactive). The EC50 [7] was 0.0983 µM (active).
With O=C(CSc1nc(-c2ccc(F)cc2)nc2c1Cc1ccccc1O2)Nc1ccc(C(=O)O)cc1 the IC50 [8] was 5.02 µM (active), the IC50 [9] was 23 µM (active) and the IC50 [10] was 10.1 µM (active). For the same compound, the IC50 [11] was 4.04 µM (active), the IC50 [12] was > 50 µM (not active) and the IC50 [13] was 50 µM (inactive). For the same compound, the IC50 [14] was > 66.6 µM (inactive) and the IC50 [15] was 3.36 µM (active).
In the case of COCCn1c(C)cc(C(=O)COC(=O)c2cccc(O)c2)c1C, the EC50 [16] is reported as 0.137 µM (active), the EC50 [17] is reported as 0.121 µM (active) and the IC50 [18] is reported as > 20 µM (inactive). For the same compound, the EC50 [19] was < 0.1 µM (active), the IC50 [20] was 2.5 µM (active) and the IC50 [21] was 0.704 µM (active).
